The text below walks through data of patent US20200368315A1, “ANTIMICROBIAL PEPTIDES AND ADMIXTURES THEREOF SHOWING ANTIMICROBIAL ACTIVITY AGAINST GRAM-NEGATIVE PATHOGENS” (priority 2017, published 2020).

Each structure is given as a SMILES string. Values after ≈ are worked out from the molar mass of the structure shown. Values joined by “and” are separate entries in the source; they are usually repeats but may differ in a detail not shown here. Identical values can stand only once. Like-named read-outs stand apart in the source and are kept apart here.

Test [1] has as its system A. baumannii LMG01041. As for the experimental part: (§1) The test of synergistic effect was processed by conducting standard chequerboard broth microdilution assays. […] Row 11 are used as growth control with no peptide was included, while row 12 with MHB medium-only wells was included as a sterility control as referred before. 50 uL fresh bacterial suspension was added to well 1-11 and final volume of each well on the plate is 100 uL.
(§2) The test of synergistic effect was processed as method 1.4.
(§3) To determine whether the combination therapy is additive, synergistic or antagonistic, fractional inhibitory concentration (FIC) indices were calculated. FICI=FICa+FICb=MICac/MICa+MICbc/MICb. The MICa/MICb is the MIC of compound A/B alone. MICac is the MIC of compound A in combination with compound B and MICbc is the MIC of compound B when it was combination with compound A. […]. FICa is FIC of compound A while FICb is FIC of compound B. The FICI is interpreted as follows: synergistic, FICI≤0.5; additive, 0.5<FICI<1; indifferent, 1<FICI<2; antagonistic, FICI>2.

Test [2] concerns E. coli LMG15862. As to the method:
as §1, §2, §3

The subject of test [3] is P. aeruginosa LMG 6395. As for the experimental part:
as §1, §2, §3

In test [4] the test system is K. pneumoniae LMG20218. As to the method:
as §1, §2, §3

The subject of test [5] is E. aerogenes LMG 02094. As to the method: as §1, §2, §3
Test [6] deals with A. baumannii LMG01041. As to the kind of experiment: microbe, parasite or virus in culture. Particulars: for MIC: Acinetobacter baumannii. Format: cell-based, Acinetobacter baumannii. A digest of the protocol: (§4)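 Liquid growth inhibition assay in polypropylene plates: compound serially diluted 1/2, MHB, final inoculum 5*10^5 CFU/mL, duplicates. Endpoint visual.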
The test system of test [7] is Gram-negative pathogens. It counts as cell-based. Particulars: alone; over the 5 Gram-negative pathogens. As for the experimental part:
Escherichia coli, Klebsiella pneumoniae, Pseudomonas aeruginosa, Acinetobacter baumannii, Enterobacter aerogenes were grown in Luria-Bertani (LB) broth shaken (200 rpm) or on LB agar at 37° C. […] MICs tests were performed in duplicate by a liquid growth inhibition microdilution assays in sterilized polypropylene microtiter plates according to Wiegand and […] [27]. […] The suspension was diluted in a ratio of 1:100 using Mueller Hinton Broth (MHB) and the final inoculum is 5*10^5 CFU/mL. […] The antimicrobials were diluted serially by 1/2 one by one and 50 uL diluted bacterial suspension were added to each well to make the final volume to be 100 uL. Growth control was accomplished by remove 10 uL from well 11 and dilute 1000 times to plate 1/10 suspension on the solid medium. […] The number of colonies on the control agar plate should be around 50 to ensure the concentration of the inoculum and the effectiveness of the experiment. The lowest concentration of the antimicrobials that inhibits visible growth of the indicator is identified as MIC.

The test system of test [8] is P. aeruginosa LMG 6395. As to the kind of experiment: microbe, parasite or virus in culture. To be noted: for MIC: Pseudomonas aeruginosa. Format: cell-based, Pseudomonas aeruginosa. A digest of the protocol: as §4
Test [9] relates to E. aerogenes LMG 02094. The experiment in a line: microbe, parasite or virus in culture. Format: cell-based, Enterobacter aerogenes. To be noted: for MIC: Klebsiella aerogenes. The essentials:
as §4

Test [10] relates to K. pneumoniae LMG20218. The experiment in a line: microbe, parasite or virus in culture. Format: cell-based, Klebsiella pneumoniae. To be noted: for MIC: Klebsiella pneumoniae. The essentials: as §4
The subject of test [11] is Escherichia coli ATCC BAA-2452. The experiment in a line: microbe, parasite or virus in culture. Particulars: for MIC: Escherichia coli. As to the method: (§5) Testing was performed according to CLSI (Clinical Laboratory Standards Institute) guidelines. Read out of the study was determination of MIC—minimal inhibitory concentration expressed in μg/mL.
(§6) Out of these PBS solutions, 76.8 μL was transferred to 1423.2 μL of MH media in deep well for testing compound alone. […] Out of these working solutions 100 μL were transferred to wells in the third column of 96-well assay plates. Assay plates were previously filled with 50 μL of MH media in all wells except for the wells in the third column.
(§7) Microorganisms used were all revived from skim milk storage at −70° C. by plating them on MH agar plates. The following day a single colony of each microorganism was again streaked on fresh agar plates. The next day, using direct colony suspension method, broth solutions that achieve turbidity equivalent to 0.5 McFarland standard for each microorganism were prepared. […] Out of these suspensions, actual inoculums were prepared by diluting them 100× with MH media giving final microorganism count of 2-8×10^5 CFU/mL. For each strain of microorganisms, 20 mL of these inoculum solutions were prepared. From the second to the twelfth column of 96-well plates, 50 μL of these solutions were transferred per well. To the first column, 50 μL per well of pure growth media was added. In this manner the first column was used as sterility control of media used, the second column was used as control of microorganism's growth and the rest of the plate was used for MIC determination. All plates were incubated for 16-24 h at 37° C.
(§8) MIC value was determined by visual inspection of bacterial growth within 96-well plates. The first column in which there was no visible growth of bacteria was determined as MIC value for peptide or combination tested in that particular row.

The subject of test [12] is Pseudomonas aeruginosa ATCC BAA-2108. As to the kind of experiment: microbe, parasite or virus in culture. To be noted: for MIC: Pseudomonas aeruginosa. As to the method:
as §5, §6, §7, §8

Test [13] relates to Acinetobacter baumannii ATCC BAA-1605. As to the kind of experiment: microbe, parasite or virus in culture. Particulars: for MIC: Acinetobacter baumannii. As to the method:
as §5, §6, §7, §8

The subject of test [14] is Klebsiella pneumoniae B1945, clinical isolate. The experiment in a line: microbe, parasite or virus in culture. To be noted: for MIC: Klebsiella pneumoniae. As for the experimental part:
as §5, §6, §7, §8

In test [15] the test system is Pseudomonas aeruginosa B1954, clinical isolate. As to the kind of experiment: microbe, parasite or virus in culture. To be noted: for MIC: Pseudomonas aeruginosa. As for the experimental part: as §5, §6, §7, §8
Test [16] relates to Klebsiella pneumoniae ATCC BAA-2524. As to the kind of experiment: microbe, parasite or virus in culture. Particulars: for MIC: Klebsiella pneumoniae. As for the experimental part: as §5, §6, §7, §8
Test [17] relates to Escherichia coli B1927, clinical isolate. As to the kind of experiment: microbe, parasite or virus in culture. To be noted: for MIC: Escherichia coli. As for the experimental part:
as §5, §6, §7, §8

Test [18] has as its system Acinetobacter baumannii B2026, clinical isolate. The experiment in a line: microbe, parasite or virus in culture. To be noted: for MIC: Acinetobacter baumannii. As for the experimental part:
as §5, §6, §7, §8

For `CC[C@@H](C)[C@@H](NC(=O)[C@@H](CCCNC(=N)N)NC(=O)[C@@H](CCCNC(=N)N)NC(=O)[C@@H](Cc1ccccc1)NC(=O)[C@@H](CC(C)C)NC(=O)[C@@H](CCCNC(=N)N)NC(=O)[C@H](N)CCCNC(=N)N)C(=O)N[C@H](CC(C)C)C(=O)N[C@H](CCCNC(=N)N)C(=O)N[C@H](Cc1c[nH]c2ccccc12)C(=O)N[C@H](CC(C)C)C(N)=O` [GNP-D6], the FICI in test [1] (vancomycin + GNP) is 0.5 and 0.625; in test [2] (vancomycin + GNP), 0.75 and 0.5; in [3] (vancomycin + GNP), 0.75; in test [4] (vancomycin + GNP) it was 0.75 and 0.5; in [5] (vancomycin + GNP), 0.667. For the same molecule, the MIC value turned out to be 2 µM (≈ 3.17 µg/mL) in [6] (alone, A. baumannii LMG01041); 2 µM (≈ 3.17 µg/mL) in [8] (alone, P. aeruginosa LMG 6395); 2 µM (≈ 3.17 µg/mL) in test [9] (alone, E. aerogenes LMG 02094); 2 µM (≈ 3.17 µg/mL) in test [10] (alone, K. pneumoniae LMG20218); 1.27 µM in test [11] (alone, MDR E. coli ATCC BAA-2452); 5.05 µM in test [12] (alone, MDR P. aeruginosa ATCC BAA-2108). Further, the MIC value in test [13] (alone, MDR A. baumannii ATCC BAA-1605) came out at 5.05 µM; in test [14] (alone, MDR K. pneumoniae B1945), 5.05 µM; in [15] (alone, MDR P. aeruginosa B1954), 2.53 µM; in [16] (alone, MDR K. pneumoniae ATCC BAA-2524), 2.53 µM; in test [17] (alone, MDR E. coli B1927), 1.27 µM; in test [18] (alone, A. baumannii B2026, colistin resistant), 2.53 µM. Also, the “MIC / concentration needed to inhibit growth” value in test [7] stood at 2 µM (≈ 3.17 µg/mL).

Turning to `CN[C@H](CC(C)C)C(=O)N[C@H]1C(=O)N[C@@H](CC(N)=O)C(=O)N[C@H]2C(=O)N[C@H]3C(=O)N[C@H](C(=O)N[C@H](C(=O)O)c4cc(O)cc(O)c4-c4cc3ccc4O)[C@H](O)c3ccc(c(Cl)c3)Oc3cc2cc(c3O[C@@H]2O[C@H](CO)[C@@H](O)[C@H](O)[C@H]2O[C@H]2C[C@](C)(N)[C@H](O)[C@H](C)O2)Oc2ccc(cc2Cl)[C@H]1O` [Vancomycin, reference compound], the MICa in test [1] (MIC of vancomycin alone) came out at 32 µM; in [2] (MIC of vancomycin alone), 64 µM; in [3] (MIC of vancomycin alone), 128 µM; in test [4] (MIC of vancomycin alone), 128 µM; in test [5] (MIC of vancomycin alone) it was 192 µM. Moreover, the MIC amounted to 32 µM (≈ 46.4 µg/mL) in test [6] (LMG01041, read-out: MIC value); 32 µM (≈ 46.4 µg/mL) in test [6] (LMG01041, read-out: MIC value of antimicrobial compounds alone); 128 µM (≈ 186 µg/mL) in test [8] (LMG6395, read-out: MIC value); 128 µM (≈ 186 µg/mL) in test [8] (LMG6395, read-out: MIC value of antimicrobial compounds alone); 192 µM (≈ 278 µg/mL) in test [9] (LMG02094, read-out: MIC value); 192 µM (≈ 278 µg/mL) in test [9] (LMG02094, read-out: MIC value of antimicrobial compounds alone). Besides, the MIC in test [10] (LMG20218, read-out: MIC value) is 128 µM (≈ 186 µg/mL); in test [10] (LMG20218, read-out: MIC value of antimicrobial compounds alone) it was 128 µM (≈ 186 µg/mL); in [11] (ATCCBAA2452), over 128 µg/mL; in test [11] (ATCCBAA2452, read-out: MIC value) it was over 88.3 µM; in test [12] (ATCCBAA2108), over 128 µg/mL; in [12] (ATCCBAA2108, read-out: MIC value), over 88.3 µM. Further, the MIC in test [13] (ATCCBAA1605) is 64 µg/mL; in test [13] (ATCCBAA1605, read-out: MIC value), 44.2 µM; in [14], over 128 µg/mL; in [14] (read-out: MIC value) it was over 88.3 µM; in test [15] it was 128 µg/mL; in test [15] (read-out: MIC value), 88.3 µM. In addition, the MIC is over 128 µg/mL in [16] (ATCCBAA2524); over 88.3 µM in test [16] (ATCCBAA2524, read-out: MIC value); 128 µg/mL in test [17]; 88.3 µM in test [17] (read-out: MIC value); 32 µg/mL in test [18]; 22.1 µM in test [18] (read-out: MIC value). In addition, in test [7], the “MIC / concentration needed to inhibit growth” value is listed as “at least 32 μM”.
